Assay results from PubChem BioAssay AID1963852 (Molecular Pharmacology Branch, DTP, NCI, 2024).

System: 282377-053-R-J1-PDC complex spheroid viability
Experiment: Anticancer human tumor 282377-053-R-J1-PDC patient-derived colon adenocarcinoma cell line growth inhibition [POLQ]
Conditions: for IC50: curve of first compound; for viability, T/C: stronger effect = lower value
Procedure, shortened: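 Growth inhibition in 3D: complex spheroids (tumor PDC, HUVEC, MSC) treated with POLQ inhibitor combinations; where Cmax unknown, highest tested concentration 10 microM, except SN-38 at 1 microM.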

[1] = second compound 0.0316 µM, first compound 0.0316 µM
[2] = second compound 0.0316 µM, first compound 0.1 µM
[3] = second compound 0.0316 µM, first compound 0.316 µM
[4] = second compound 0.0316 µM, first compound 1 µM
[5] = second compound 0.0316 µM, first compound 3.16 µM
[6] = second compound 0.0316 µM, first compound 10 µM
[7] = second compound 0.1 µM, first compound 0.0316 µM
[8] = second compound 0.1 µM, first compound 0.1 µM
[9] = second compound 0.1 µM, first compound 0.316 µM
[10] = second compound 0.1 µM, first compound 1 µM
[11] = second compound 0.1 µM, first compound 3.16 µM
[12] = second compound 0.1 µM, first compound 10 µM
[13] = second compound 0.316 µM, first compound 0.0316 µM
[14] = second compound 0.316 µM, first compound 0.1 µM
[15] = second compound 0.316 µM, first compound 0.316 µM
[16] = second compound 0.316 µM, first compound 1 µM
[17] = second compound 0.316 µM, first compound 3.16 µM
[18] = second compound 0.316 µM, first compound 10 µM
[19] = second compound 1 µM, first compound 0.0316 µM
[20] = second compound 1 µM, first compound 0.1 µM
[21] = second compound 1 µM, first compound 0.316 µM
[22] = second compound 1 µM, first compound 1 µM
[23] = second compound 1 µM, first compound 3.16 µM
[24] = second compound 1 µM, first compound 10 µM
[25] = second compound 3.16 µM, first compound 0.0316 µM
[26] = second compound 3.16 µM, first compound 0.1 µM
[27] = second compound 3.16 µM, first compound 0.316 µM
[28] = second compound 3.16 µM, first compound 1 µM
[29] = second compound 3.16 µM, first compound 3.16 µM
[30] = second compound 3.16 µM, first compound 10 µM
[31] = second compound 10 µM, first compound 0.0316 µM
[32] = second compound 10 µM, first compound 0.1 µM
[33] = second compound 10 µM, first compound 0.316 µM
[34] = second compound 10 µM, first compound 1 µM
[35] = second compound 10 µM, first compound 3.16 µM
[36] = second compound 10 µM, first compound 10 µM
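Further: spheroids exposed to compounds for seven days.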
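Wherever viability, T/C is given: 100% = DMSO vehicle control viability.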

C=CC(=O)N1CCN(c2nc(=O)n(-c3c(C)ccnc3C(C)C)c3nc(-c4c(O)cccc4F)c(F)cc23)C(C)C1 (stereo unspecified) + Nc1ccc(C#CCN(C(=O)Cc2ncc(C(F)(F)F)cc2C(F)(F)F)c2ccc(F)cc2)nn1
IC50 (second compound 0.0316 µM): > 10 µM | IC50 (second compound 0.1 µM): > 10 µM | IC50 (second compound 0.316 µM): > 10 µM | IC50 (second compound 1 µM): > 10 µM | IC50 (second compound 3.16 µM): > 10 µM | IC50 (second compound 10 µM): > 10 µM | viability, T/C [1]: 95% | viability, T/C [2]: 107% | viability, T/C [3]: 94% | viability, T/C [4]: 90.8% | viability, T/C [5]: 104% | viability, T/C [6]: 97.5% | viability, T/C [7]: 95.3% | viability, T/C [8]: 107% | viability, T/C [9]: 91% | viability, T/C [10]: 99.7% | viability, T/C [11]: 113% | viability, T/C [12]: 83.4% | viability, T/C [13]: 90.4% | viability, T/C [14]: 88.6% | viability, T/C [15]: 100% | viability, T/C [16]: 98.7% | viability, T/C [17]: 101% | viability, T/C [18]: 94.9% | viability, T/C [19]: 108% | viability, T/C [20]: 90.9% | viability, T/C [21]: 111% | viability, T/C [22]: 91.3% | viability, T/C [23]: 97.7% | viability, T/C [24]: 86.9% | viability, T/C [25]: 106% | viability, T/C [26]: 100% | viability, T/C [27]: 92.8% | viability, T/C [28]: 108% | viability, T/C [29]: 91% | viability, T/C [30]: 87.9% | viability, T/C [31]: 112% | viability, T/C [32]: 107% | viability, T/C [33]: 114% | viability, T/C [34]: 114% | viability, T/C [35]: 98.7% | viability, T/C [36]: 106%

CC(C)n1c(=O)n(C)c2cnc3cc(F)c(-c4ccc(OCCCN5CCCCC5)nc4)cc3c21 + Nc1ccc(C#CCN(C(=O)Cc2ncc(C(F)(F)F)cc2C(F)(F)F)c2ccc(F)cc2)nn1
IC50 (second compound 0.0316 µM): > 10 µM | IC50 (second compound 0.1 µM): > 10 µM | IC50 (second compound 0.316 µM): > 10 µM | IC50 (second compound 1 µM): > 10 µM | IC50 (second compound 3.16 µM): > 10 µM | IC50 (second compound 10 µM): > 10 µM | viability, T/C [1]: 101% | viability, T/C [2]: 105% | viability, T/C [3]: 107% | viability, T/C [4]: 103% | viability, T/C [5]: 110% | viability, T/C [6]: 92.7% | viability, T/C [7]: 117% | viability, T/C [8]: 113% | viability, T/C [9]: 108% | viability, T/C [10]: 108% | viability, T/C [11]: 97.2% | viability, T/C [12]: 101% | viability, T/C [13]: 111% | viability, T/C [14]: 91.5% | viability, T/C [15]: 109% | viability, T/C [16]: 104% | viability, T/C [17]: 106% | viability, T/C [18]: 94.5% | viability, T/C [19]: 116% | viability, T/C [20]: 105% | viability, T/C [21]: 103% | viability, T/C [22]: 112% | viability, T/C [23]: 118% | viability, T/C [24]: 102% | viability, T/C [25]: 105% | viability, T/C [26]: 106% | viability, T/C [27]: 103% | viability, T/C [28]: 115% | viability, T/C [29]: 108% | viability, T/C [30]: 111% | viability, T/C [31]: 121% | viability, T/C [32]: 119% | viability, T/C [33]: 114% | viability, T/C [34]: 128% | viability, T/C [35]: 127% | viability, T/C [36]: 122%

CC1COCCN1c1cc(-c2ccnn2C)c2ccnc(-c3ccn[nH]3)c2n1 (stereo unspecified) + Nc1ccc(C#CCN(C(=O)Cc2ncc(C(F)(F)F)cc2C(F)(F)F)c2ccc(F)cc2)nn1
IC50 (second compound 0.0316 µM): 2.12 µM | IC50 (second compound 0.1 µM): 0.717 µM | IC50 (second compound 0.316 µM): 0.826 µM | IC50 (second compound 1 µM): 0.821 µM | IC50 (second compound 3.16 µM): 0.997 µM | IC50 (second compound 10 µM): 1.2 µM | viability, T/C [1]: 84.6% | viability, T/C [2]: 78.7% | viability, T/C [3]: 69.4% | viability, T/C [4]: 62.3% | viability, T/C [5]: 42.6% | viability, T/C [6]: 35.1% | viability, T/C [7]: 86.2% | viability, T/C [8]: 88% | viability, T/C [9]: 66.4% | viability, T/C [10]: 44.3% | viability, T/C [11]: 41.1% | viability, T/C [12]: 41.2% | viability, T/C [13]: 91% | viability, T/C [14]: 81% | viability, T/C [15]: 58.8% | viability, T/C [16]: 49.4% | viability, T/C [17]: 45.8% | viability, T/C [18]: 41.5% | viability, T/C [19]: 94.5% | viability, T/C [20]: 83.2% | viability, T/C [21]: 67.3% | viability, T/C [22]: 43.8% | viability, T/C [23]: 41.5% | viability, T/C [24]: 33% | viability, T/C [25]: 100% | viability, T/C [26]: 78.3% | viability, T/C [27]: 67.3% | viability, T/C [28]: 49.4% | viability, T/C [29]: 37.3% | viability, T/C [30]: 44.8% | viability, T/C [31]: 103% | viability, T/C [32]: 84.2% | viability, T/C [33]: 78.5% | viability, T/C [34]: 47.9% | viability, T/C [35]: 39.5% | viability, T/C [36]: 46.3%
